Measured values as given in PubChem BioAssay (NCI).
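How tested: cells in 96-well plates exposed to compound for 48 hours at five concentrations. TGI is the concentration that stops growth completely.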

Columns and labels:
Assay in all cases: NCI anticancer screen, dose series, 48 h
PC-3 prostate = test system: PC-3 prostate
OVCAR-3 ovarian = test system: OVCAR-3 ovarian
K-562 leukemia = test system: K-562 leukemia
HT29 colon = test system: HT29 colon
BT-549 breast = test system: BT-549 breast
SW-620 colon = test system: SW-620 colon
786-0 renal = test system: 786-0 renal
MDA-MB-231 breast = test system: MDA-MB-231 breast
SK-OV-3 ovarian = test system: SK-OV-3 ovarian
HS 578T breast = test system: HS 578T breast
SNB-19 CNS = test system: SNB-19 CNS
A549 NSCLC = test system: A549 NSCLC
MCF7 breast = test system: MCF7 breast
COLO 205 colon = test system: COLO 205 colon
HOP-92 NSCLC = test system: HOP-92 NSCLC
SN12C renal = test system: SN12C renal
HCT-15 colon = test system: HCT-15 colon
SK-MEL-5 melanoma = test system: SK-MEL-5 melanoma
EKVX NSCLC = test system: EKVX NSCLC
NCI-H226 lung = test system: NCI-H226 lung
T-47D breast = test system: T-47D breast
A498 renal = test system: A498 renal
RXF 393 renal = test system: RXF 393 renal
SF-268 CNS = test system: SF-268 CNS
SR leukemia = test system: SR leukemia
UACC-257 melanoma = test system: UACC-257 melanoma
HCT-116 colon = test system: HCT-116 colon
OVCAR-5 ovarian = test system: OVCAR-5 ovarian
DU-145 prostate = test system: DU-145 prostate
ACHN renal = test system: ACHN renal
MDA-N = test system: MDA-N
MDA-MB-435 = test system: MDA-MB-435
U251 CNS = test system: U251 CNS
HOP-62 NSCLC = test system: HOP-62 NSCLC
KM12 colon = test system: KM12 colon
TK-10 renal = test system: TK-10 renal
MALME-3M melanoma = test system: MALME-3M melanoma
HL-60(TB) leukemia = test system: HL-60(TB) leukemia
RPMI-8226 leukemia = test system: RPMI-8226 leukemia
IGROV1 ovarian = test system: IGROV1 ovarian
SNB-75 CNS = test system: SNB-75 CNS
OVCAR-4 ovarian = test system: OVCAR-4 ovarian
CAKI-1 renal = test system: CAKI-1 renal
UO-31 renal = test system: UO-31 renal
NCI-H460 lung = test system: NCI-H460 lung
SK-MEL-28 melanoma = test system: SK-MEL-28 melanoma
NCI/ADR-RES ovarian = test system: NCI/ADR-RES ovarian
LOX IMVI melanoma = test system: LOX IMVI melanoma
UACC-62 melanoma = test system: UACC-62 melanoma
M14 melanoma = test system: M14 melanoma
SK-MEL-2 melanoma = test system: SK-MEL-2 melanoma
NCI-H23 lung = test system: NCI-H23 lung
NCI-H522 lung = test system: NCI-H522 lung
SF-295 CNS = test system: SF-295 CNS

**Q.** With `NC(=O)NC(=O)c1cccc(NC(=O)CBr)c1` as the compound, how does the TGI (PC-3 prostate) read?
**A.** The TGI was 1490 nM.

**Q.** And the TGI (OVCAR-3 ovarian)?
**A.** The TGI was 24 nM.

**Q.** What about the TGI (K-562 leukemia) of the same compound?
**A.** The TGI was 1490 nM.

**Q.** And the TGI (HT29 colon)?
**A.** Its TGI is under 29.1 nM.

**Q.** And the TGI (BT-549 breast)?
**A.** The TGI was 1430 nM.

**Q.** What about the TGI (SW-620 colon) of the same compound?
**A.** Its TGI is 3300 nM.

**Q.** What about the TGI (786-0 renal) of the same compound?
**A.** The TGI was under 33.3 nM.

**Q.** What about the TGI (MDA-MB-231 breast) of the same compound?
**A.** The TGI was 951 nM.

**Q.** And the TGI (SK-OV-3 ovarian)?
**A.** The TGI was 963 nM.

**Q.** And the TGI (HS 578T breast)?
**A.** Its TGI is under 50.5 nM.

**Q.** What about the TGI (SNB-19 CNS) of the same compound?
**A.** The TGI was 13100 nM.

**Q.** What about the TGI (A549 NSCLC) of the same compound?
**A.** The TGI was 7600 nM.

**Q.** What about the TGI (MCF7 breast) of the same compound?
**A.** Its TGI is 1610 nM.

**Q.** What about the TGI (COLO 205 colon) of the same compound?
**A.** The TGI was under 10 nM.

**Q.** And the TGI (HOP-92 NSCLC)?
**A.** Its TGI is 1750 nM.

**Q.** What about the TGI (SN12C renal) of the same compound?
**A.** Its TGI is 391 nM.

**Q.** And the TGI (HCT-15 colon)?
**A.** Its TGI is 384 nM.

**Q.** What about the TGI (SK-MEL-5 melanoma) of the same compound?
**A.** The TGI was under 18.4 nM.

**Q.** What about the TGI (EKVX NSCLC) of the same compound?
**A.** Its TGI is 6800 nM.

**Q.** What about the TGI (NCI-H226 lung) of the same compound?
**A.** The TGI was 67 nM.

**Q.** And the TGI (T-47D breast)?
**A.** Its TGI is 3700 nM.

**Q.** And the TGI (A498 renal)?
**A.** Its TGI is 532 nM.

**Q.** What about the TGI (RXF 393 renal) of the same compound?
**A.** The TGI was 1380 nM.

**Q.** And the TGI (SF-268 CNS)?
**A.** The TGI was under 27.5 nM.

**Q.** What about the TGI (SR leukemia) of the same compound?
**A.** Its TGI is 152 nM.

**Q.** What about the TGI (UACC-257 melanoma) of the same compound?
**A.** Its TGI is 623 nM.

**Q.** And the TGI (HCT-116 colon)?
**A.** Its TGI is under 10 nM.

**Q.** And the TGI (OVCAR-5 ovarian)?
**A.** The TGI was 1890 nM.

**Q.** What about the TGI (DU-145 prostate) of the same compound?
**A.** Its TGI is 336 nM.

**Q.** What about the TGI (ACHN renal) of the same compound?
**A.** The TGI was 1400 nM.

**Q.** What about the TGI (MDA-N) of the same compound?
**A.** The TGI was under 22.6 nM.

**Q.** What about the TGI (MDA-MB-435) of the same compound?
**A.** Its TGI is under 35.8 nM.

**Q.** What about the TGI (U251 CNS) of the same compound?
**A.** The TGI was 58.2 nM.

**Q.** And the TGI (HOP-62 NSCLC)?
**A.** The TGI was 1290 nM.

**Q.** What about the TGI (KM12 colon) of the same compound?
**A.** Its TGI is 14400 nM.

**Q.** What about the TGI (TK-10 renal) of the same compound?
**A.** Its TGI is 281 nM.

**Q.** And the TGI (MALME-3M melanoma)?
**A.** The TGI was 746 nM.

**Q.** And the TGI (HL-60(TB) leukemia)?
**A.** Its TGI is under 20.7 nM.

**Q.** And the TGI (RPMI-8226 leukemia)?
**A.** Its TGI is 306 nM.

**Q.** And the TGI (IGROV1 ovarian)?
**A.** The TGI was 368 nM.

**Q.** And the TGI (SNB-75 CNS)?
**A.** Its TGI is 1690 nM.

**Q.** What about the TGI (OVCAR-4 ovarian) of the same compound?
**A.** The TGI was 3110 nM.

**Q.** What about the TGI (CAKI-1 renal) of the same compound?
**A.** The TGI was 321 nM.

**Q.** What about the TGI (UO-31 renal) of the same compound?
**A.** Its TGI is 1680 nM.

**Q.** And the TGI (NCI-H460 lung)?
**A.** Its TGI is 166 nM.

**Q.** And the TGI (SK-MEL-28 melanoma)?
**A.** Its TGI is 7470 nM.

**Q.** What about the TGI (NCI/ADR-RES ovarian) of the same compound?
**A.** The TGI was 799 nM.

**Q.** What about the TGI (LOX IMVI melanoma) of the same compound?
**A.** Its TGI is 193 nM.

**Q.** What about the TGI (UACC-62 melanoma) of the same compound?
**A.** The TGI was 908 nM.

**Q.** What about the TGI (M14 melanoma) of the same compound?
**A.** The TGI was 549 nM.

**Q.** What about the TGI (SK-MEL-2 melanoma) of the same compound?
**A.** Its TGI is 1590 nM.

**Q.** And the TGI (NCI-H23 lung)?
**A.** Its TGI is 1540 nM.

**Q.** And the TGI (NCI-H522 lung)?
**A.** Its TGI is under 10 nM.

**Q.** What about the TGI (SF-295 CNS) of the same compound?
**A.** Its TGI is 2700 nM.
